Like-named read-outs stand apart in the source and are kept apart here.
B1: IL-7: recombinant mouse IL-7 (Peprotech) (protein, UniProt P10168 26-154, looked up)
Interleukin-7: ECHIKDKEGKAYESVLMISIDELDKMTGTDSNCPNNEPNFFRKHVCDDTKEAAFLNRAARKLKQFLKMNISEEFNVHLLTVSQGTQTLVNCTSKEEKNVKEQKKNDACFLKRLLREIKTCWNKILKGSI
B2: IL-27: cytokine tested for rescue of T cell expansion from MEK inhibition (protein, UniProt Q8NEV9 29-243; Q14213 21-229, looked up)
Interleukin-27 subunit alpha: FPRPPGRPQLSLQELRREFTVSLHLARKLLSEVRGQAHRFAESHLPGVNLYLLPLGEQLPDVSLTFQAWRRLSDPERLCFISTTLQPFHALLGGLGTQGRWTNMERMQLWAMRLDLRDLQRHLRFQVLAAGFNLPEEEEEEEEEEEEERKGLLPGALGSALQGPAQVSWPQLLSTYRLLHSLELVLSRAVRELLLLSKAGHSVWPLGFPTLSPQP
Interleukin-27 subunit beta: RKGPPAALTLPRVQCRASRYPIAVDCSWTLPPAPNSTSPVSFIATYRLGMAARGHSWPCLQQTPTSTSCTITDVQLFSMAPYVLNVTAVHPWGSSSSFVPFITEHIIKPDPPEGVRLSPLAERQLQVQWEPPGSWPFPEIFSLKYWIRYKRQGAARFHRVGPIEATSFILRAVRPRARYYVQVAAQDLTDYGELSDWSLPATATMSLGK

Legend:
human T cells [1] = assay: ConA-induced activation and expansion of human T cells (high-throughput screen); assay type: cell-based; conditions: human T cells activated with ConA for 7 days, N/A = ambiguous curve fits or EC50 greater than the highest concentration tested (25 μM)
Procedure: T cell stimulation—For human T cell proliferation assays, peripheral blood lymphocytes were obtained by leukapheresis/elutriation and Miltenyi bead-purified and K562 cells expressing human CD32 were generated as previously described^41. […] PBMCs were labeled with CELLTRACE Violet stain (Invitrogen) according to the manufacturer's instructions and cocultured with loaded K32 cells at a 10:1 T cells:K32 ratio or activated with ConA (2 μg/ml, Sigma). Proliferation of stimulated T cells was determined 7 days later by FACS and Division Index was calculated using FlowJo software.
(§1) EC50 values were calculated from normalized percent inhibition data using non-linear curve fitting in PRISM software.

[2] = tested on: A2780 ovarian cancer cells; assay: Molecular screening of compounds on A2780 cell proliferation (resazurin fluorescence); assay type: cell-based, human; conditions: A2780 cells cultured 3 days, N/A = ambiguous curve fits or EC50 greater than the highest concentration tested (25 μM), read-out: EC5 - A2780 ovarian cancer cells
Procedure: Cell proliferation assays—Cells were plated in 96-well plates. Compounds were added the next morning, and cell proliferation was measured 48 hrs later with the […] 96 MTS assay (Promega) according to the manufacturer's instructions. Molecular screening of compounds on A2780 cells was performed by adding compounds the morning after plating in 384-well plates and measuring proliferation 72 hrs later with resazurin fluorescence. Normalized percent inhibition (NPI) was calculated with respect to fluorescence values obtained with DMSO negative control and doxorubicin (5 μM) positive control as NPI=100%*(DMSO−compound)/(DMSO−doxorubicin). TCR ligation of human CD8 T cells
as §1

human T cells [3] = assay: aAPC (anti-CD3/anti-CD28)-induced human T cell proliferation, CELLTRACE; assay type: cell-based; conditions: 7 days
Procedure: Four plots show proliferation of CD8 cells after 7 days is shown. […] Proliferation of CD8 cells after 7 days is shown. T cell stimulation-For human T cell proliferation assays, peripheral blood lymphocytes were obtained by leukapheresis/elutriation and Miltenyi bead-purified and K562 cells expressing human CD32 were generated as previously described^41. […] were γ-irradiated (100 Gy) and loaded with anti-CD3 (500 ng/ml, clone OKT3; eBioscience) plus anti-CD28 (500 ng/ml, clone 15E8; EMD Millipore) antibodies at room temperature for 10 minutes. PBMCs were labeled with CELLTRACE Violet stain (Invitrogen) according to the manufacturer's instructions and cocultured with loaded […] cells at a 10:1 T cells:[…] ratio or activated with ConA (2 μg/ml, Sigma). Proliferation of stimulated T cells was determined 7 days later by FACS and Division Index was calculated using FlowJo software.

human T cells [4] = assay: Cytokine rescue of human T cell proliferation from MEK inhibition; assay type: cell-based; conditions: GDC0973 or trametinib
Procedure: Proliferation of CD8 T cells after 7 days is shown.
FIG. 2D is a graph showing that human PBMCs were activated as in FIG. 2B with the indicated compounds, BKM120=2 μM.
Reported are percentages of cells that proliferated with GDC0973 relative to vehicle treatment with the same cytokines after 7 days. Stains are not depicted.
T cell stimulation—For human T cell proliferation assays, peripheral blood lymphocytes were obtained by leukapheresis/elutriation and Miltenyi bead-purified and K562 cells expressing human CD32 were generated as previously described^41. K32 were γ-irradiated (100 Gy) and loaded with anti-CD3 (500 ng/ml, clone OKT3; eBioscience) plus anti-CD28 (500 ng/ml, clone 15E8; EMD Millipore) antibodies at room temperature for 10 minutes. PBMCs were labeled with CELLTRACE Violet stain (Invitrogen) according to the manufacturer's instructions and cocultured with loaded K32 cells at a 10:1 T cells:K32 ratio or activated with ConA (2 μg/ml, Sigma). Proliferation of stimulated T cells was determined 7 days later by FACS and Division Index was calculated using FlowJo software.

Molecule | EC50 (human T cells [1]; T-cell, 168 h) | EC50 ([2]; Homo sapiens, 72 h) | other results
CC(C)(C)c1cc(C=C(C#N)C#N)cc(Br)c1O [AG1024] |  |  | EC50 (human T cells [1]): 9.83 µM; EC50 [2]: 21.3 µM
Cc1cn(-c2cc(NC(=O)c3ccc(C)c(Nc4nccc(-c5cccnc5)n4)c3)cc(C(F)(F)F)c2)cn1 [AMN107] | 2.48 µM | 19.1 µM | 
CN1CCN(CCOc2cc(OC3CCOCC3)c3c(Nc4c(Cl)ccc5c4OCO5)ncnc3c2)CC1 [AZD0530 (saracatinib), saracatinib] | 0.422 µM |  | 
CCN(CCCOc1ccc2c(Nc3cc(CC(=O)Nc4cccc(F)c4)n[nH]3)ncnc2c1)CCOP(=O)(O)O [AZD1152] | 0.0921 µM |  | 
Cn1cnc2c(F)c(Nc3ccc(Br)cc3Cl)c(C(=O)NOCCO)cc21 [AZD6244 (selumetinib), selumetinib] | 24.5 µM |  | 
Cc1cc([C@@H](C)Nc2ccccc2C(=O)O)c2nc(N3CCOCC3)cc(=O)n2c1 [AZD6482] | 0.962 µM |  | 
Nc1cc(C(F)(F)F)c(-c2cc(N3CCOCC3)nc(N3CCOCC3)n2)cn1 [BKM120] | 0.239 µM | 11.5 µM | proliferation of human T cells in response to aAPC coated with agonistic CD3 and CD28 antibodies (human T cells [3]): restricted the proliferation
CS(=O)(=O)N1CCN(Cc2cc3nc(-c4cccc5[nH]ncc45)nc(N4CCOCC4)c3s2)CC1 [GDC0941] |  | 1.54 µM | 
O=C(c1ccc(F)c(F)c1Nc1ccc(I)cc1F)N1CC(O)([C@@H]2CCCCN2)C1 [GDC0973] | 0.00435 µM | 9.04 µM | proliferation of human T cells in response to aAPC coated with agonistic CD3 and CD28 antibodies (human T cells [3]): restricted the proliferation
CC(C)(C)c1nc(-c2cccc(NS(=O)(=O)c3c(F)cccc3F)c2F)c(-c2ccnc(N)n2)s1 [GSK436 (dabrafenib), dabrafenib] | 1.28 µM | 11.4 µM | 
CCc1cc(Nc2nccc(-c3c(-c4ccc(OC)c(C(=O)Nc5c(F)cccc5F)c4)nc4ccccn34)n2)c(OC)cc1N1CCC(N2CCN(S(C)(=O)=O)CC2)CC1 [GSK1904529] |  |  | EC50 (human T cells [1]): 13.9 µM
COc1ncc(-c2ccc3nccc(-c4ccnnc4)c3c2)cc1NS(=O)(=O)c1ccc(F)cc1F [GSK2126458] |  |  | EC50 (human T cells [1]): 0.000237 µM; EC50 [2]: 0.155 µM
Cn1ncc(Cl)c1-c1cc(C(=O)N[C@H](CN)Cc2ccc(F)c(F)c2)oc1Cl [GSK2141795] |  |  | EC50 (human T cells [1]): 0.096 µM; EC50 [2]: 2.35 µM
CC(C)n1nc(-c2ccc3oc(N)nc3c2)c2c(N)ncnc21 [INK128] | 0.0184 µM | 0.257 µM | 
Cc1[nH]c2ccccc2c1CCNCc1ccc(/C=C/C(=O)NO)cc1 [LBH589] |  | 3.61 µM | 
Cc1c(C(=O)Nc2ccc(N3C[C@@H](C)O[C@@H](C)C3)nc2)cccc1-c1ccc(OC(F)(F)F)cc1 [LDE225] | 3.57 µM | 8.48 µM | 
CN(C)C(=O)c1cc2cnc(Nc3ccc(N4CCNCC4)cn3)nc2n1C1CCCC1 [LEE011] | 2.93 µM |  | 

Molecule | EC50 (human T cells [1]; T-cell, 168 h) | EC50 ([2]; Homo sapiens, 72 h) | other results
Cc1cc(-c2ncc(CC(=O)Nc3ccc(-c4cnccn4)cn3)cc2C)ccn1 [LGK974] | 9.03 µM | 24.4 µM | 
O=c1cc(N2CCOCC2)oc2c(-c3ccccc3)cccc12 [LY294002] | 2.69 µM | 17.2 µM | 
NC1(c2ccc(-c3nc4ccn5c(=O)[nH]nc5c4cc3-c3ccccc3)cc2)CCC1 [MK2206] | 0.446 µM | 8.75 µM | 
COc1cc(Nc2ncc3c(n2)-c2ccc(Cl)cc2C(c2c(F)cccc2OC)=NC3)ccc1C(=O)O [MLN8237] | 0.0868 µM |  | 
COc1cccc2cc(-c3nc([C@H]4CC[C@H](C(=O)O)CC4)n4ncnc(N)c34)[nH]c12 [OSI027] | 0.311 µM | 5.88 µM | 
CC(=O)c1c(C)c2cnc(Nc3ccc(N4CCNCC4)cn3)nc2n(C2CCCC2)c1=O [PD0332991] |  | 5.21 µM | 
CCCS(=O)(=O)Nc1ccc(F)c(C(=O)c2c[nH]c3ncc(-c4ccc(Cl)cc4)cc23)c1F [PLX4032 (vemurafenib), vemurafenib] | 5.26 µM |  | 
C=CCN(/C=C1/C(=O)O[C@H](COC)[C@@]2(C)C1=C(O)C(=O)C1=C2[C@H](OC(C)=O)C[C@]2(C)C(=O)CC[C@@H]12)CC=C [PX-866] |  |  | EC50 (human T cells [1]): 1.2 µM
Cn1c(Nc2ccc(C(F)(F)F)cc2)nc2cc(Oc3ccnc(-c4ncc(C(F)(F)F)[nH]4)c3)ccc21 [RAF265] | 0.128 µM | 5.63 µM | 
CO[C@H]1C[C@@H]2CC[C@@H](C)[C@@](O)(O2)C(=O)C(=O)N2CCCC[C@H]2C(=O)O[C@H]([C@H](C)C[C@@H]2CC[C@@H](O)[C@H](OC)C2)CC(=O)[C@H](C)/C=C(\C)[C@@H](O)[C@@H](OC)C(=O)[C@H](C)C[C@H](C)/C=C/C=C/C=C/1C [Rapamycin] | 0.00403 µM |  | 
O=C(Nc1ccc2[nH]nc(-c3ccncc3)c2c1)[C@@H]1CCN(CC(=O)N2CCN(c3ccc(-c4ncccn4)cc3)CC2)C1 [SCH772984] | 0.0222 µM | 7.64 µM | 
O=C(Nc1cccc(Cl)c1)Nc1ncc(CCNc2ncnc3ccsc23)s1 [SNS314] | 0.0729 µM | 5.83 µM | 
COc1ccc(C2=N[C@@H](c3ccc(Cl)cc3)[C@@H](c3ccc(Cl)cc3)N2C(=O)N2CCNC(=O)C2)c(OC(C)C)c1 [nutlin-3a] |  |  | EC50 (human T cells [1]): 1.13 µM; EC50 [2]: 16.8 µM
COC1=CC(c2cc3ccccc3[nH]2)=N/C1=C\c1[nH]c(C)cc1C [obatoclax] | 0.0567 µM | 1.11 µM | 
IL-21: cytokine tested for rescue of T cell expansion from MEK inhibition |  |  | rescue of T cell proliferation in the presence of the MEK inhibitors (human T cells [4]): no effect
B1 |  |  | rescue of T cell proliferation in the presence of the MEK inhibitors (human T cells [4]): able to rescue T cell proliferation
B2 |  |  | rescue of T cell proliferation in the presence of the MEK inhibitors (human T cells [4]): no effect

— patent US20180280393A1, “METHODS AND COMPOSITIONS FOR TREATMENT OF METASTATIC AND REFRACTORY CANCERS AND TUMORS” (The Wistar Institute of Anatomy and Biology, priority 2015, published 2018)
